Tested on: NOMO1
Assay: cell viability relative to DMSO control; higher = less cytotoxic
Conditions: 48 h
Method in brief: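 NOMO1 or SEM cells were plated at 500 cells/well and P12-Ichikawa cells at 1000 cells/well in 1536-well plates (5 μl), after each leukemia line had been adapted for at least four passages in each medium. Pin dosing delivered library compounds in DMSO at 11 threefold concentrations, 47 μM to 0.79 nM. CellTiter-Glo One luminescence was read after 48 h at 37°C. Viability is reported as a per-plate percentage of DMSO wells, with cell-free wells as background.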

[1] = HPLM + 10% dialyzed FBS, 0.000781 µM
[2] = HPLM + 10% dialyzed FBS, 0.00234 µM
[3] = HPLM + 10% dialyzed FBS, 0.00702 µM
[4] = HPLM + 10% dialyzed FBS, 0.0211 µM
[5] = HPLM + 10% dialyzed FBS, 0.0632 µM
[6] = HPLM + 10% dialyzed FBS, 0.19 µM
[7] = HPLM + 10% dialyzed FBS, 0.569 µM
[8] = HPLM + 10% dialyzed FBS, 1.71 µM
[9] = HPLM + 10% dialyzed FBS, 5.12 µM
[10] = HPLM + 10% dialyzed FBS, 15.4 µM
[11] = HPLM + 10% dialyzed FBS, 46.1 µM
[12] = RPMI 5 mM glucose + 10% FBS, 0.000781 µM
[13] = RPMI 5 mM glucose + 10% FBS, 0.00234 µM
[14] = RPMI 5 mM glucose + 10% FBS, 0.00702 µM
[15] = RPMI 5 mM glucose + 10% FBS, 0.0211 µM
[16] = RPMI 5 mM glucose + 10% FBS, 0.0632 µM
[17] = RPMI 5 mM glucose + 10% FBS, 0.19 µM
[18] = RPMI 5 mM glucose + 10% FBS, 0.569 µM
[19] = RPMI 5 mM glucose + 10% FBS, 1.71 µM
[20] = RPMI 5 mM glucose + 10% FBS, 5.12 µM
[21] = RPMI 5 mM glucose + 10% FBS, 15.4 µM
[22] = RPMI 5 mM glucose + 10% FBS, 46.1 µM
[23] = RPMI 5 mM glucose + 10% dialyzed FBS, 0.000781 µM
[24] = RPMI 5 mM glucose + 10% dialyzed FBS, 0.00234 µM
[25] = RPMI 5 mM glucose + 10% dialyzed FBS, 0.00702 µM
[26] = RPMI 5 mM glucose + 10% dialyzed FBS, 0.0211 µM
[27] = RPMI 5 mM glucose + 10% dialyzed FBS, 0.0632 µM
[28] = RPMI 5 mM glucose + 10% dialyzed FBS, 0.19 µM
[29] = RPMI 5 mM glucose + 10% dialyzed FBS, 0.569 µM
[30] = RPMI 5 mM glucose + 10% dialyzed FBS, 1.71 µM
[31] = RPMI 5 mM glucose + 10% dialyzed FBS, 5.12 µM
[32] = RPMI 5 mM glucose + 10% dialyzed FBS, 15.4 µM
[33] = RPMI 5 mM glucose + 10% dialyzed FBS, 46.1 µM

Compound	cell viability [1]	cell viability [2]	cell viability [3]	cell viability [4]	cell viability [5]	cell viability [6]	cell viability [7]	cell viability [8]	cell viability [9]	cell viability [10]	cell viability [11]	cell viability [12]	cell viability [13]	cell viability [14]	cell viability [15]	cell viability [16]	cell viability [17]	cell viability [18]	cell viability [19]	cell viability [20]	cell viability [21]	cell viability [22]	cell viability [23]	cell viability [24]	cell viability [25]	cell viability [26]	cell viability [27]	cell viability [28]	cell viability [29]	cell viability [30]	cell viability [31]	cell viability [32]	cell viability [33]
CC(C)(C)OC(=O)N[C@H]1CCCCC/C=C\[C@@H]2C[C@@]2(C(=O)N[S+](=O)([O-])C2CC2)NC(=O)[C@@H]2C[C@@H](OC(=O)N3Cc4cccc(F)c4C3)CN2C1=O	125%	115%	124%	114%	108%	121%	103%	120%	114%	111%	111%	96.8%	93.3%	97.2%	100%	114%	106%	113%	99.9%	94%	101%	102%	97.4%	92.7%	111%	98.5%	110%	100%	123%	109%	104%	90.1%	103%
C[C@]12CC[C@@H]3c4ccc(O)cc4CC[C@H]3[C@@H]1[C@@H](O)[C@@H](O)[C@@H]2O	117%	121%	124%	123%	121%	127%	116%	128%	103%	110%	102%	–	–	–	–	–	–	–	–	–	–	–	106%	138%	118%	142%	140%	141%	131%	134%	150%	128%	130%
CC(C)C1NC(=O)C(NC(=O)C2=C3\N=C\4/C(=C(C)\C(=O)\C(=C4C(=O)NC5C(C)OC(=O)C(C(C)C)N(C)C(=O)CN(C)C(=O)C6CCCN6C(=O)C(NC5=O)C(C)C)N)OC3=C(C)C=C2)C(C)OC(=O)C(C(C)C)N(C)C(=O)CN(C)C(=O)C7CCCN7C1=O (centres undefined)	7.64%	9.4%	7.42%	5.43%	6.88%	5.51%	6.57%	6.12%	3.81%	2.42%	2.47%	7.96%	9.36%	7.73%	5.14%	6.66%	5.99%	5.54%	6.58%	4.43%	2.79%	1.97%	5.95%	8.79%	6.56%	5.07%	5.04%	5.51%	4.5%	3.94%	3.31%	2.14%	2%
O=C(O)Cn1nnc(-c2cc(N3CCC(Oc4cc(F)ccc4Br)CC3)no2)n1	96%	97.7%	97.2%	111%	108%	99.6%	106%	34.7%	29.9%	24.4%	24.6%	102%	105%	106%	109%	109%	106%	104%	22.9%	22.1%	16%	16.6%	83.1%	109%	100%	104%	115%	113%	112%	45.2%	31.9%	25.4%	22.8%
CN[C@@H](C)[C@H]1[C@H](O)C[C@@]2(C)[C@@H]3CC[C@H]4C(C)(C)[C@@H](NC)CC[C@@]45C[C@@]35CC[C@]12C	81.4%	102%	81.7%	108%	89.8%	93.7%	105%	95.2%	82.6%	105%	70.9%	85.4%	94.5%	91.6%	94.3%	102%	102%	95%	94.8%	93.9%	95.7%	92.5%	86.4%	87.8%	101%	99.6%	104%	95.6%	93.1%	91.7%	86.1%	99.6%	72.1%
O=c1[nH]c(=O)n([C@H]2C[C@H](O)[C@@H](CO)O2)cc1/C=C/Br	89.1%	108%	120%	108%	123%	108%	96.2%	96.5%	79.4%	72.4%	55.4%	93.9%	111%	97.7%	106%	114%	101%	113%	117%	106%	120%	110%	123%	110%	102%	122%	119%	114%	107%	121%	134%	130%	105%
CC(C)c1noc(N2CCC(COc3ccc(-c4ccc([S+](C)(=O)[O-])cc4)nc3)CC2)n1	122%	104%	117%	103%	122%	108%	120%	109%	94.3%	109%	116%	114%	113%	122%	118%	121%	114%	122%	104%	105%	110%	100%	118%	122%	118%	122%	117%	128%	119%	109%	116%	113%	107%
CNC(=O)c1ccc(N2C(=S)N(c3cnc(C#N)c(C(F)(F)F)c3)C(=O)C23CCC3)cc1F	79.6%	114%	103%	115%	110%	116%	102%	89.8%	69.7%	64.8%	50.2%	84.9%	113%	111%	104%	105%	111%	96.3%	83.4%	79%	73.2%	60.2%	88%	109%	107%	104%	99.1%	121%	123%	104%	73.3%	74%	74.2%
C[N]1C=C(C=N1)C2=C3\C=N/NC(=O)C4=C3C(=CC(=C4)NC(=O)[C@H](N)C5CCCCC5)[NH]2	99.8%	111%	97.7%	91.1%	104%	101%	91.6%	78.3%	72.6%	35.7%	36.6%	95.1%	97.2%	93.5%	87%	100%	97.9%	84.3%	86.4%	80.2%	26%	29.1%	101%	90.4%	105%	89.7%	90.7%	87%	95.4%	94.1%	60.3%	20.5%	29%
CC[C@H](/C=C/[C@@H](C)[C@H]1CC[C@H]2[C@@H]3CC=C4C[C@@H](O)CC[C@]4(C)[C@H]3CC[C@]12C)C(C)C	104%	112%	110%	98.9%	104%	102%	97.3%	96.7%	80.6%	73.7%	58.2%	89.3%	94.3%	101%	105%	92.9%	90.7%	88.8%	92.8%	81.1%	81.3%	78.7%	98.2%	89.4%	91.1%	84.5%	96.1%	89.5%	86%	95.1%	94.5%	68.3%	69.6%
O=C1c2ccccc2-[n+]2ccc3c([nH]c4ccccc43)c21	106%	114%	125%	93.1%	103%	120%	104%	99.6%	62%	2.96%	2.32%	98%	115%	104%	110%	112%	103%	112%	108%	87%	3.28%	2.18%	91.3%	116%	107%	97.1%	98.5%	126%	101%	102%	66.4%	3.34%	2%
O=C1NC(=O)/C(=C/c2ccc3nccc(-c4ccncc4)c3c2)S1	129%	96.8%	124%	97.8%	89.6%	85.4%	55.6%	50.8%	33.8%	26%	14.7%	115%	99.6%	107%	113%	101%	92.9%	84.1%	66.7%	36.8%	29.1%	16%	107%	115%	92%	97.3%	88%	63.2%	61%	55.9%	34.7%	27.2%	13.6%
CC(C)(O)CC[C@@H](O)[C@](C)(O)[C@H]1CC[C@@]2(O)C/3=C/C(=O)[C@@H]4C[C@@H](O)[C@@H](O)C[C@]4(C)[C@H]3CC[C@]12C	111%	98.6%	110%	86.8%	84.6%	98.5%	98%	103%	87.4%	94.9%	81.7%	87.9%	97.3%	86.9%	83.8%	93.2%	91.9%	91.2%	88.6%	80%	84.2%	83.1%	108%	110%	108%	95.2%	105%	91.6%	105%	90%	86.2%	88.1%	94.4%
OC[C@H]1O[C@H]([C@H](O)[C@@H]1O)N2\C=C/C(=O)NC2=O	111%	127%	105%	114%	122%	107%	103%	119%	118%	95.4%	98.4%	89.4%	87.3%	95.6%	85.4%	94.7%	96.5%	94.6%	91.4%	79.4%	91.6%	80.8%	93.9%	85.1%	99.8%	99.3%	95.7%	103%	104%	93.7%	96%	90.5%	87.8%
NC\1=N\C(=O)N(\C=C1)[C@@H]2O[C@H](CO)[C@@H](O)[C@@H]2O	76.3%	79.8%	47.7%	62.9%	33.9%	30.6%	31.5%	25.8%	20.3%	20%	6.26%	76%	83.3%	83.1%	74.8%	54.1%	24.4%	25.1%	21.3%	14.6%	8.18%	3.59%	66.8%	68.6%	53.4%	49.9%	29.8%	18.3%	25.8%	14.7%	16.6%	12.6%	7.75%

Reference: the supplement of paper PMC11451515
